Source: patent publication US11759462B2, “Spirocyclic compounds as tryptophan hydroxylase inhibitors” (priority 2013, dated 2023)
Where two headings read alike, the source gives them in different places.

Target: T1, Recombinant human TPH1 (MBP tagged) (Homo sapiens, UniProt P17752)
T1 construct: cloning full length human TPH1 cDNA in to a bacterial pMAL-c5E expression vector; made in house; host or cells: E. coli BL21 (DE3)
T1 sequence (P17752 1-444): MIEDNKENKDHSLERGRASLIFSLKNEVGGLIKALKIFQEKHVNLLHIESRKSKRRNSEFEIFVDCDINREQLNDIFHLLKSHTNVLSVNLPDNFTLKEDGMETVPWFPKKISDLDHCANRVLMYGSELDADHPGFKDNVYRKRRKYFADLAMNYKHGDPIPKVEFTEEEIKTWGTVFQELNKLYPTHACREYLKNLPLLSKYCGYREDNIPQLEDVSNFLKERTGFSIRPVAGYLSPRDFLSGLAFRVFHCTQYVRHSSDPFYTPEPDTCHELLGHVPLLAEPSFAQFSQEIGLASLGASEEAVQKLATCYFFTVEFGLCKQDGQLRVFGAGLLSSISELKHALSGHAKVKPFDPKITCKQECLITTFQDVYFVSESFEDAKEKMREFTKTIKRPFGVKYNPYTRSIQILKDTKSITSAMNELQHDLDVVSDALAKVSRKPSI
Experiment: TPH1 in vitro inhibition assay (kinetic fluorescence)
Format: biochemical
Summary of the method: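 Final mix: 15 nM MBP-TPH1, 30 μM Trp, 36 μM 6-methyltetrahydropterin, 25 μM ferrous ammonium sulfate, 50 mM MES pH 7.1, 1% DMSO, room temperature.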

[1] = read-out: TPH1 Range (TPH1 inhibition IC50)
[2] = TPH1 Range (TPH1 inhibition IC50)

| SMILES | IC50 [1] [nM] | IC50 [2] [nM] |
| --- | --- | --- |
| Nc1nc(O[C@H](c2ccc(-c3ccc4[nH]c(=O)ccc4c3)cc2)C(F)(F)F)cc(N2CCC3(CC2)CN[C@H](C(=O)O)C3)n1 [Example 55t, (S)-8-(2-amino-6-((R)-2,2,2-trifluoro-1-(4-(2-oxo-1,2-dihydroquinolin-6-yl)phenyl)ethoxy)pyrimidin-4-yl)-2,8-diazaspiro[4.5]decane-3-carboxylic acid] | 50 to 300 |  |
| Cn1c(=O)ccc2cc(-c3ccc([C@@H](Oc4cc(N5CCC6(CC5)CN[C@H](C(=O)O)C6)nc(N)n4)C(F)(F)F)cc3)ccc21 [Example 55u, (S)-8-(2-amino-6-((R)-2,2,2-trifluoro-1-(4-(1-methyl-2-oxo-1,2-dihydroquinolin-6-yl)phenyl)ethoxy)pyrimidin-4-yl)-2,8-diazaspiro[4.5]decane-3-carboxylic acid] | 50 to 300 |  |
| Nc1nc(O[C@H](c2ccc(-c3ccc4c(c3)CCC(=O)N4)cc2)C(F)(F)F)cc(N2CCC3(CC2)CN[C@H](C(=O)O)C3)n1 [Example 55v, (S)-8-(2-amino-6-((R)-2,2,2-trifluoro-1-(4-(2-oxo-1,2,3,4-tetrahydroquinolin-6-yl)phenyl)ethoxy)pyrimidin-4-yl)-2,8-diazaspiro[4.5]decane-3-carboxylic acid] |  | < 50 |
| Nc1nc(O[C@H](c2ccc(-c3ccc4[nH]ncc4c3)cc2)C(F)(F)F)cc(N2CCC3(CC2)CN[C@H](C(=O)O)C3)n1 [Example 55w, (S)-8-(6-((R)-1-(4-(1H-indazol-5-yl)phenyl)-2,2,2-trifluoroethoxy)-2-aminopyrimidin-4-yl)-2,8-diazaspiro[4.5]decane-3-carboxylic acid] |  | < 50 |
| Cc1nn(C)c2ccc(-c3ccc([C@@H](Oc4cc(N5CCC6(CC5)CN[C@H](C(=O)O)C6)nc(N)n4)C(F)(F)F)cc3)cc12 [Example 55x, (S)-8-(2-amino-6-((R)-1-(4-(1,3-dimethyl-1H-indazol-5-yl)phenyl)-2,2,2-trifluoroethoxy)pyrimidin-4-yl)-2,8-diazaspiro[4.5]decane-3-carboxylic acid] | 50 to 300 |  |
| Cc1cn(C)c2ccc(-c3ccc([C@@H](Oc4cc(N5CCC6(CC5)CN[C@H](C(=O)O)C6)nc(N)n4)C(F)(F)F)cc3)cc12 [Example 55y, (S)-8-(2-amino-6-((R)-1-(4-(1,3-dimethyl-1H-indol-5-yl)phenyl)-2,2,2-trifluoroethoxy)pyrimidin-4-yl)-2,8-diazaspiro[4.5]decane-3-carboxylic acid] | 50 to 300 |  |
| COc1cc(-c2ccc([C@@H](Oc3cc(N4CCC5(CC4)CN[C@H](C(=O)O)C5)nc(N)n3)C(F)(F)F)cc2)cc(C(F)(F)F)c1 [Example 55z, (S)-8-(2-amino-6-((R)-2,2,2-trifluoro-1-(3′-methoxy-5′-(trifluoromethyl)-[1,1′-biphenyl]-4-yl)ethoxy)pyrimidin-4-yl)-2,8-diazaspiro[4.5]decane-3-carboxylic acid] | 50 to 300 |  |
| Nc1nc(O[C@H](c2ccc(-c3ccc4c(c3)NCCN4)cc2)C(F)(F)F)cc(N2CCC3(CC2)CN[C@H](C(=O)O)C3)n1 [Example 56, (S)-8-(2-amino-6-((R)-2,2,2-trifluoro-1-(4-(1,2,3,4-tetrahydroquinoxalin-6-yl)phenyl)ethoxy)pyrimidin-4-yl)-2,8-diazaspiro[4.5]decane-3-carboxylic acid] | 50 to 300 |  |
| Nc1nc(O[C@H](c2ccc3c(c2)CNCN3)C(F)(F)F)cc(N2CCC3(CC2)CN[C@H](C(=O)O)C3)n1 [Example 58, (S)-8-(2-amino-6-((R)-2,2,2-trifluoro-1-(1,2,3,4-tetrahydroquinazolin-6-yl)ethoxy)pyrimidin-4-yl)-2,8-diazaspiro[4.5]decane-3-carboxylic acid] | 50 to 300 |  |
| Nc1nc(O[C@H](c2ccc(Br)cc2)C(F)(F)F)cc(N2CCC3(CC2)CN[C@H](C(=O)O)C3)n1 [Example 59, (S)-8-(2-amino-6-((R)-1-(4-bromophenyl)-2,2,2-trifluoroethoxy)pyrimidin-4-yl)-2,8-diazaspiro[4.5]decane-3-carboxylic acid] | 300 to 3000 |  |
